Among the data in US11242361B2 (Proteostasis Therapeutics, Inc., priority 2013, dated 2022) are IC50 values, retold here.

For this test, the target named is USP14 (Homo sapiens (Human), UniProt P54578). In words: USP14 Inhibition Assay. Type of test: biochemical. Conditions: average value from a minimum of two experimental determinations, read-out: IC50 Category. The procedure:
Example 17: USP14 Inhibition Assay
“I” in the Table below designates an IC50 of >5 μM, “II” in the Table below designates and IC50 between 0.5 and 5 μM, and “III” designates an IC50<0.5 μM. The IC50 values in the Table below represent the average value from a minimum of two experimental determinations.

Structures can show the parent of a compound that is named as a salt.

Sequence of USP14 (P54578 whole entry, looked up): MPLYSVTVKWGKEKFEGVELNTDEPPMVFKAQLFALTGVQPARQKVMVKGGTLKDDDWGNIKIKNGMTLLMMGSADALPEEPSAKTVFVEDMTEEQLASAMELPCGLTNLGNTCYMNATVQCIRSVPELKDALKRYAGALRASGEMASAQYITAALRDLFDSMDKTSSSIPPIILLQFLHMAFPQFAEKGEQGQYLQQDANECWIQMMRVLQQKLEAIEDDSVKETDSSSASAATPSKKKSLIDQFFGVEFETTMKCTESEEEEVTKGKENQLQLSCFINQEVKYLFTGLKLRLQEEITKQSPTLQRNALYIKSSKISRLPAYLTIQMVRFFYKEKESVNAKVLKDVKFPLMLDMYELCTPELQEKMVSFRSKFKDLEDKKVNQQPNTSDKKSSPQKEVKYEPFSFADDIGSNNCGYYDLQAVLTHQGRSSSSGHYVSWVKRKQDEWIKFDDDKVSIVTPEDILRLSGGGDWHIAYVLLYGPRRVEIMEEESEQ

By IC50 is commonly meant the concentration at which inhibition is half-maximal. Consider `Cc1nc2c(C(=O)CN3CCCCC3)c(C)n(-c3ccc(C#N)cc3)c2cc1CCC(=O)O` [Compound 202, 3-(1-(4-Cyanophenyl)-2,5-dimethyl-3-(2-(piperidin-1-yl)acetyl)-1H-pyrrolo[3,2-b]pyridin-6-yl)propanoic Acid Hydrochloride Salt], for which the IC50 was under 500 nM.

For the compound `Cc1c(C(=O)CN2CCCCC2)c2ccc(CCC(=O)O)cc2n1-c1ccc(C#N)cc1` [Compound 201, 3-(1-(4-Cyanophenyl)-2-methyl-3-(2-(piperidin-1-yl)acetyl)-1H-indol-6-yl)propanoic Acid], the IC50 was under 500 nM.

Turning to `Cc1c(C(=O)CN2CCCCC2)c2ccc(OCC(N)=O)cc2n1-c1ccc(Cl)cc1` [Compound 179, 2-((1-(4-Chlorophenyl)-2-methyl-3-(2-(piperidin-1-yl)acetyl)-1H-indol-6-yl)oxy)acetamide], the IC50 was under 500 nM.

For `CCOC(=O)CCc1cc2c(nc1C)c(C(=O)CN1CCCCC1)c(C)n2-c1ccc(C#N)cc1` [Compound 200, Ethyl 3-(1-(4-Cyanophenyl)-2,5-dimethyl-3-(2-(piperidin-1-yl)acetyl)-1H-pyrrolo[3,2-b]pyridin-6-yl)propanoate], the IC50 was under 500 nM.

`CCc1c(C(=O)CN2CCCCC2)c2ccccc2n1-c1ccc(Cl)cc1` [Compound 401]: the IC50 is 500 to 5000 nM.

With `CNc1ccc2c(c1)c(C(=O)CN1CCCCC1)c(C)n2-c1ccc(C#N)cc1` [Compound 199, 4-(2-Methyl-5-(methylamino)-3-(2-(piperidin-1-yl)acetyl)-1H-indol-1-yl)benzonitrile], the IC50 was under 500 nM.

As to `Cc1c(C(=O)CN2CCC(O)CC2)c2ccccc2n1-c1ccc(Cl)cn1` [Compound 398], the IC50 fell in the range of 500 to 5000 nM.

On to “4-(2-Methyl-3-(2-(piperidin-1-yl)acetyl)-1H-indol-1-yl)benzonitrile [Compound 160]”, for which the IC50 is under 500 nM.

As for `CC(=O)N(C)c1ccc2c(c1)c(C(=O)CN1CCCCC1)c(C)n2-c1ccc(C#N)cc1` [Compound 196, N-(1-(4-Cyanophenyl)-2-methyl-3-(2-(piperidin-1-yl)acetyl)-1H-indol-5-yl)-N-methylacetamide], the IC50 was under 500 nM.
